Assay results from patent publication US10125105B2, “Triazabutadienes as cleavable cross-linkers” (ARIZONA BOARD OF REGENTS ON BEHALF OF THE UNIVERSITY OF …, priority 2014, dated 2018).

Experiments:
[1] = pH-dependent decomposition to diazonium salts in buffers by NMR; format: physicochemical; conditions: phosphate/citrate buffers pH 4-7, phosphate buffer pH 6-8
Protocol: (§1) For decomposition experiments, buffers were made to the appropriate pH in a 9:1 mix of H2O:D2O. These solutions were added to the compound being assayed such that the buffer capacity was at least 10 fold the concentration of the compound. Some experiments used 5 mg compound in 0.5 mL of buffer. These were immediately inserted into an NMR instrument and scans were taken at even time intervals to calculate the half-life of the compound based on integration.
As mentioned above, Compound 6c was reasonably stable in pure D20. Upon adjusting the pH to 5 with HCl, a rapid initial consumption of Compound 6c to Compound 7 (see FIG. 6E) and a benzenediazonium salt was noted. After this initial burst of reactivity, a slowing and apparent arresting of the reaction was noted. At this pH the hydronium was the limiting reagent. All future reactions were run in buffers with a buffer capacity sufficient to maintain a large excess of hydronium ions. The experiments were performed in 90:10 H2O:D2O buffered solutions to minimize considerations of pH vs. pD. The decomposition to diazonium salts and Compound 7 was measured as a function of pH in phosphate/citrate buffers from pH 4-7 and in a phosphate buffer from pH 6-8. All runs provided linear correlations of concentration and time, indicating a pseudo-zero order reaction (first order with respect to hydronium ion with a large excess of hydronium ions). […]

[2] = Stability in D2O / water in the dark by NMR; format: physicochemical
Protocol: as §1
To render the triazabutadiene water-soluble, methyl imidazole was alkylated with propane sultone to provide the Zwitterionic NHC precursor Compound 5a (see FIG. 6E). […] Compound 6a was highly colored, so its pH dependence was studied using UV/Vis. The reactions were not only pH-, but also scan-frequency dependent. […] Even in the dark it was unstable, but not in the diazonium-forming way. Both Compound 6b and a more hindered mesityl (Mes) substituted Compound 6c (see FIG. 6E) were synthesized to stabilize what was initially considered to be a rearrangement pathway that could be blocked by steric repulsion. […] It is not yet clear that the hypothesis of a simple rearrangement was correct. […]
As mentioned above, Compound 6c was reasonably stable in pure D20. […] The decomposition to diazonium salts and Compound 7 was measured as a function of pH in phosphate/citrate buffers from pH 4-7 and in a phosphate buffer from pH 6-8. […]

## Cc1cc(C)c(-n2ccn(CCCS(=O)(=O)[O-])c2=NN=Nc2ccccc2)c(C)c1.[K+] [Compound 6c, Potassium 3-(3-mesityl-2-(phenyltriaz-2-en-1-ylidene)-2,3-dihydro-1H-imidazol-1-yl) propane-1-sulfonate]
[1]
  centre of sigmoidal correlation between decomposition rate and buffer pH: 6 pH
[2]; D2O, in the dark, room temperature, NMR
  compound consumed after 24 hours: less than 10%
[2]; non-buffered 90:10 H2O:D2O solution
  compound consumed after 6 hours: > 7%
